# Experiments:
# [1] = system: HL-60(TB); assay: NCI-60 one-dose screen, HL-60(TB); type: cell-based; details: Homo sapiens, leukaemia, single dose 10 μM, read-out: Growth inhibition %
# Description: (§1) Anti-proliferative effects of the counterparts 4a–g and 5a–g were screened against 60 human cancer cell lines, following the Developmental Therapeutics Program protocol, National Cancer Institute[35].
# (§2) The anti-tumour activity of the fourteen synthesised congeners was investigated at the NCI against a panel of 60 cancer cell lines (NCI-60 Cell One-Dose Screen). The tested dibenzo[b,f]azepine derivatives were screened at a single dose level (10 μM), Table 1.
# [2] = system: K-562; assay: NCI-60 one-dose screen, K-562; type: cell-based; details: Homo sapiens, K562; K-562, leukaemia; single dose 10 μM; read-out: Growth inhibition %
# Description: as §1, §2
# [3] = system: MOLT-4; assay: NCI-60 one-dose screen, MOLT-4; type: cell-based; details: Homo sapiens; MOLT-4, leukaemia; single dose 10 μM; read-out: Growth inhibition %
# Description: as §1, §2
# [4] = system: RPMI-8226; assay: NCI-60 one-dose screen, RPMI-8226; type: cell-based; details: Homo sapiens; RPMI-8226, leukaemia; single dose 10 μM; read-out: Growth inhibition %
# Description: as §1, §2
# [5] = system: A549-ATCC; assay: NCI-60 one-dose screen, A549-ATCC; type: cell-based; details: Homo sapiens, non-small cell lung cancer, single dose 10 μM, read-out: Growth inhibition %
# Description: as §1, §2
# [6] = system: HOP-92; assay: NCI-60 one-dose screen, HOP-92; type: cell-based; details: Homo sapiens; HOP-92, non-small cell lung cancer; single dose 10 μM; read-out: Growth inhibition %
# Description: as §1, §2
# [7] = system: NCI-H460; assay: NCI-60 one-dose screen, NCI-H460; type: cell-based; details: Homo sapiens; NCI-H460, non-small cell lung cancer; single dose 10 μM; read-out: Growth inhibition %
# Description: as §1, §2
# [8] = system: NCI-H522; assay: NCI-60 one-dose screen, NCI-H522; type: cell-based; details: Homo sapiens; NCI-H522, non-small cell lung cancer; single dose 10 μM; read-out: Growth inhibition %
# Description: as §1, §2
# [9] = system: HCT-15; assay: NCI-60 one-dose screen, HCT-15; type: cell-based; details: Homo sapiens; HCT-15, colon cancer; single dose 10 μM; read-out: Growth inhibition %
# Description: as §1, §2
# [10] = system: KM12; assay: NCI-60 one-dose screen, KM12; type: cell-based; details: Homo sapiens; KM12, colon cancer; single dose 10 μM; read-out: Growth inhibition %
# Description: as §1, §2
# [11] = system: SF-295; assay: NCI-60 one-dose screen, SF-295; type: cell-based; details: Homo sapiens; SF-295, CNS cancer; single dose 10 μM; read-out: Growth inhibition %
# Description: as §1, §2
# [12] = system: SNB-19; assay: NCI-60 one-dose screen, SNB-19; type: cell-based; details: Homo sapiens; SNB-19, CNS cancer; single dose 10 μM; read-out: Growth inhibition %
# Description: as §1, §2
# [13] = system: LOX IMVI; assay: NCI-60 one-dose screen, LOX IMVI; type: cell-based; details: Homo sapiens, melanoma, single dose 10 μM, read-out: Growth inhibition %
# Description: as §1, §2
# [14] = system: SK-MEL-2; assay: NCI-60 one-dose screen, SK-MEL-2; type: cell-based; details: Homo sapiens; SK-MEL-2, melanoma; single dose 10 μM; read-out: Growth inhibition %
# Description: as §1, §2
# [15] = system: IGROV1; assay: NCI-60 one-dose screen, IGROV1; type: cell-based; details: Homo sapiens, IGROV-1; IGROV1, ovarian cancer; single dose 10 μM; read-out: Growth inhibition %
# Description: as §1, §2
# [16] = system: OVCAR-5; assay: NCI-60 one-dose screen, OVCAR-5; type: cell-based; details: Homo sapiens; OVCAR-5, ovarian cancer; single dose 10 μM; read-out: Growth inhibition %
# Description: as §1, §2
# [17] = system: OVCAR-8; assay: NCI-60 one-dose screen, OVCAR-8; type: cell-based; details: Homo sapiens; OVCAR-8, ovarian cancer; single dose 10 μM; read-out: Growth inhibition %
# Description: as §1, §2
# [18] = system: SK-OV-3; assay: NCI-60 one-dose screen, SK-OV-3; type: cell-based; details: Homo sapiens; SK-OV-3, ovarian cancer; single dose 10 μM; read-out: Growth inhibition %
# Description: as §1, §2
# [19] = system: A498; assay: NCI-60 one-dose screen, A498; type: cell-based; details: Homo sapiens; A498, renal cancer; single dose 10 μM; read-out: Growth inhibition %
# Description: as §1, §2
# [20] = system: ACHN; assay: NCI-60 one-dose screen, ACHN; type: cell-based; details: Homo sapiens, renal cancer, single dose 10 μM, read-out: Growth inhibition %
# Description: as §1, §2
# [21] = system: SN12C; assay: NCI-60 one-dose screen, SN12C; type: cell-based; details: Homo sapiens, renal cancer, single dose 10 μM, read-out: Growth inhibition %
# Description: as §1, §2
# [22] = system: TK-10; assay: NCI-60 one-dose screen, TK-10; type: cell-based; details: Homo sapiens; TK-10, renal cancer; single dose 10 μM; read-out: Growth inhibition %
# Description: as §1, §2
# [23] = system: MCF-7; assay: NCI-60 one-dose screen, MCF-7; type: cell-based; details: Homo sapiens, MCF7; MCF-7, breast cancer; single dose 10 μM; read-out: Growth inhibition %
# Description: as §1, §2
# [24] = system: MDA-MB-468; assay: NCI-60 one-dose screen, MDA-MB-468; type: cell-based; details: Homo sapiens; MDA-MB-468, breast cancer; single dose 10 μM; read-out: Growth inhibition %
# Description: as §1, §2
Structure (SMILES),inhibition at 10 µM [1],inhibition at 10 µM [2],inhibition at 10 µM [3],inhibition at 10 µM [4],inhibition at 10 µM [5],inhibition at 10 µM [6],inhibition at 10 µM [7],inhibition at 10 µM [8],inhibition at 10 µM [9],inhibition at 10 µM [10],inhibition at 10 µM [11],inhibition at 10 µM [12],inhibition at 10 µM [13],inhibition at 10 µM [14],inhibition at 10 µM [15],inhibition at 10 µM [16],inhibition at 10 µM [17],inhibition at 10 µM [18],inhibition at 10 µM [19],inhibition at 10 µM [20],other results
"O=C(NNC(=O)N1c2ccccc2C=Cc2ccccc21)c1ccccc1 [Compound 4a, N′-Benzoyl-5H-dibenzo[b,f]azepine-5-carbohydrazide]",< 10%,< 10%,< 10%,< 10%,< 10%,< 10%,< 10%,< 10%,< 10%,< 10%,< 10%,< 10%,< 10%,< 10%,< 10%,< 10%,< 10%,< 10%,< 10%,< 10%,inhibition at 10 µM [21]: < 10%; inhibition at 10 µM [22]: < 10%; inhibition at 10 µM [23]: < 10%; inhibition at 10 µM [24]: < 10%; melting point: 222 to 224 °C
"O=C(NNC(=O)N1c2ccccc2C=Cc2ccccc21)c1ccc(Br)cc1 [Compound 4b, N′-(4-Bromobenzoyl)-5H-dibenzo[b,f]azepine-5-carbohydrazide]",< 10%,< 10%,< 10%,< 10%,18.5%,< 10%,< 10%,< 10%,< 10%,< 10%,< 10%,< 10%,< 10%,< 10%,< 10%,< 10%,< 10%,< 10%,< 10%,14%,inhibition at 10 µM [21]: < 10%; inhibition at 10 µM [22]: < 10%; inhibition at 10 µM [23]: < 10%; inhibition at 10 µM [24]: < 10%; melting point: 237 to 239 °C
"O=C(NNC(=O)N1c2ccccc2C=Cc2ccccc21)c1ccc(Cl)cc1 [Compound 4c, N′-(4-Chlorobenzoyl)-5H-dibenzo[b,f]azepine-5-carbohydrazide]",< 10%,< 10%,< 10%,< 10%,< 10%,< 10%,< 10%,< 10%,< 10%,< 10%,< 10%,< 10%,< 10%,< 10%,< 10%,< 10%,< 10%,< 10%,< 10%,13.3%,inhibition at 10 µM [21]: < 10%; inhibition at 10 µM [22]: 13.2%; inhibition at 10 µM [23]: < 10%; inhibition at 10 µM [24]: < 10%; melting point: 229 to 231 °C
"Cc1ccc(C(=O)NNC(=O)N2c3ccccc3C=Cc3ccccc32)cc1 [Compound 4d, N′-(4-Methylbenzoyl)-5H-dibenzo[b,f]azepine-5-carbohydrazide]",< 10%,< 10%,< 10%,< 10%,< 10%,< 10%,< 10%,< 10%,< 10%,< 10%,< 10%,< 10%,< 10%,< 10%,< 10%,< 10%,< 10%,< 10%,< 10%,< 10%,inhibition at 10 µM [21]: < 10%; inhibition at 10 µM [22]: 10.3%; inhibition at 10 µM [23]: < 10%; inhibition at 10 µM [24]: < 10%; melting point: 151 to 153 °C
"O=C(NNC(=O)N1c2ccccc2C=Cc2ccccc21)c1ccc([N+](=O)[O-])cc1 [Compound 4e, N′-(4-Nitrobenzoyl)-5H-dibenzo[b,f]azepine-5-carbohydrazide]",< 10%,< 10%,< 10%,< 10%,< 10%,< 10%,< 10%,< 10%,< 10%,< 10%,< 10%,< 10%,< 10%,< 10%,< 10%,< 10%,< 10%,< 10%,< 10%,< 10%,inhibition at 10 µM [21]: < 10%; inhibition at 10 µM [22]: 10%; inhibition at 10 µM [23]: < 10%; inhibition at 10 µM [24]: < 10%; melting point: 241 to 243 °C
"O=C(NNC(=O)N1c2ccccc2C=Cc2ccccc21)c1ccc2ccccc2c1 [Compound 4f, N′-(2-Naphthoyl)-5H-dibenzo[b,f]azepine-5-carbohydrazide]",10%,12.8%,< 10%,< 10%,< 10%,18.6%,< 10%,14.1%,< 10%,< 10%,< 10%,< 10%,< 10%,< 10%,< 10%,< 10%,< 10%,< 10%,< 10%,< 10%,inhibition at 10 µM [21]: < 10%; inhibition at 10 µM [22]: < 10%; inhibition at 10 µM [23]: 14%; inhibition at 10 µM [24]: 12.3%; melting point: 243 to 245 °C
"O=C(Cc1ccccc1)NNC(=O)N1c2ccccc2C=Cc2ccccc21 [Compound 4g, N′-(2-Phenylacetyl)-5H-dibenzo[b,f]azepine-5-carbohydrazide]",< 10%,< 10%,< 10%,< 10%,< 10%,< 10%,< 10%,< 10%,< 10%,< 10%,< 10%,< 10%,< 10%,< 10%,< 10%,< 10%,< 10%,< 10%,< 10%,< 10%,inhibition at 10 µM [21]: < 10%; inhibition at 10 µM [22]: < 10%; inhibition at 10 µM [23]: < 10%; inhibition at 10 µM [24]: < 10%; melting point: 134 to 136 °C
